The target in one test is T1, PPAR-γ (Homo sapiens, UniProt P37231).
T1 sequence (P37231 1-505): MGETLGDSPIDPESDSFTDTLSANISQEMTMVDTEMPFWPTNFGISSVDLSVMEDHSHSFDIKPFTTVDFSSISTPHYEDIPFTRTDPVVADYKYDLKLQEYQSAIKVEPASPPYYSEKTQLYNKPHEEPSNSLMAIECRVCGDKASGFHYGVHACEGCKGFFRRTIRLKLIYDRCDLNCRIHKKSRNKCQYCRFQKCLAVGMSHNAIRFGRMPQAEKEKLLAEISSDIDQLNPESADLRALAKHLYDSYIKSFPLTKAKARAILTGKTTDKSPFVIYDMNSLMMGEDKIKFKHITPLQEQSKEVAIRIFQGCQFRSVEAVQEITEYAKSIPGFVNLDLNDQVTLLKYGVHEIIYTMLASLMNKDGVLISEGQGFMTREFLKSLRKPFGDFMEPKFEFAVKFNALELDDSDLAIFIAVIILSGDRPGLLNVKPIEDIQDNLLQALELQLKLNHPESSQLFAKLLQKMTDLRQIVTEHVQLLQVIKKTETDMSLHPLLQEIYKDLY
The test can be described thus: Scintillation Proximity Assay (SPA), displacement of 3H labeled darglitazone. The format is binding. To be noted: 3H darglitazone displacement, read-out: PPAR-gamma Ki. For orientation: In a scintillation proximity assay essentially only radioactivity close to the scintillant gives light.

A further test concerns the target T2, PPAR-α (Homo sapiens, UniProt Q07869).
T2 sequence (Q07869 1-468): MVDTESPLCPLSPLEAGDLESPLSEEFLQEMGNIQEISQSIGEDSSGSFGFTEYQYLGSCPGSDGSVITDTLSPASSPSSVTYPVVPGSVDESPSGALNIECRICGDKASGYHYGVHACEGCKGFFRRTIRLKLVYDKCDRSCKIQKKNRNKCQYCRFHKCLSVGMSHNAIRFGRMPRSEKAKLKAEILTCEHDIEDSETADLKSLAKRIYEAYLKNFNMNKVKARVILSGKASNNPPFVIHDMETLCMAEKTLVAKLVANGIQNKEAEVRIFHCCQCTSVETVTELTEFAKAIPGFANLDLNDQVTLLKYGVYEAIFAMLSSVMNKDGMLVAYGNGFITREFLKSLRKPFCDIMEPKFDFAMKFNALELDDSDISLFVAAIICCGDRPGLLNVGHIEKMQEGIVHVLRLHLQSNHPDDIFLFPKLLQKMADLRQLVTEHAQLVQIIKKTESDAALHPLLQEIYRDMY
The experiment in a line: Scintillation Proximity Assay (SPA), displacement of 3H labeled GW2331. The format is binding. To be noted: 3H GW2331 displacement, read-out: PPAR-alpha Ki.

SMILES strings stand for the structures.

Broadly, the Ki is a dissociation constant, usually derived from enzyme kinetics or from competition with a known ligand.

Source text for PPAR-α: Scintillatian Proximity Assay (SPA) Assays
In the SPA assay, 3H labeled darglitazone (for PPAR-γ) or GW2331 (for PPAR-α) is bound to the PPAR protein captured on SPA polylysine beads and generates radioactive count signal that can be detected by TopCounts (Packard). The PPAR-bound 3H labeled ligand can be displaced by an unlabeled compound. The Ki of the compound can be then determined by the extent of displacement at various compound concentrations. Reagents: • SPA polylysine beads, which can be purchased from Amersham Bioscience. • H labeled Darglitazone for PPAR-γ. • H labeled GW2331 for PPAR-α. • PPAR proteins. • Buffer—PBS, 10% glycerol, 14 mM beta-mercaptoethanol.

Consider `Cc1oc(-c2ccccc2)nc1CCOC(=O)NCc1ccc(OC(C)(C)C(=O)O)cc1F` [Example B-09], for which the Ki at PPAR-γ was determined as 1900 nM; at PPAR-α, 2200 nM.
With `COc1cccc(-c2nc(CCOc3ccc(CC4(C(=O)O)CCCO4)cc3)c(C)o2)c1` (centres unmarked) [Example C-85], the Ki was 4 nM on PPAR-γ and 13 nM at PPAR-α.
Taken in the same sequence, the figures for `Cc1oc(-c2ccccc2C#N)nc1CCOc1ccc(CC2(C(=O)O)CCC2)cc1` [Example C-22] were 800 nM and 2100 nM.
Regarding `Cc1oc(-c2ccccc2)nc1CCCc1ccc(CC2(C(=O)O)CCCO2)cn1` (centres unmarked) [Example C-74], the Ki at PPAR-γ was determined as 640 nM; at PPAR-α it was 900 nM.
For `Cc1oc(-c2ccccc2)nc1CCOc1ccc(OC2(C(=O)O)CCC2)cc1` [Example C-40], in that order: 3700 nM and 700 nM.
In the case of `Cn1nc(-c2ccccc2)nc1COc1cccc(-c2cccc(OC3(C(=O)O)CCC3)c2)c1` [Example A-19], the Ki was 59 nM at PPAR-γ and 700 nM on PPAR-α.
On to `Cc1nc(CCOc2ccc(CC3(C(=O)O)CCCO3)cn2)c(C)s1` (centres unmarked) [Example C-68], for which, at PPAR-γ, the Ki turned out to be 4200 nM.
For `COc1cccc(-c2nc(CCOc3ccc(CC4(C(=O)O)CCC4)cc3)c(C)o2)c1` [Example C-29], the inhibition constant (Ki) at PPAR-γ came out at 6 nM; on PPAR-α, 120 nM.
Taken in the same sequence, the figures for `O=C(O)C1(Oc2ccc(OCc3nc(-c4ccccc4)oc3-c3ccccc3)cc2)CCC1` [Example C-36] were 1700 nM and 21000 nM.
Taken in the same sequence, the figures for `Cc1oc(-c2ccccc2)nc1CCCOc1cccc(-c2cccc(OC(C)(C)C(=O)O)c2)c1` [Example A-23] were 390 nM and 180 nM.
In the case of `Cc1oc(-c2ccccc2)nc1CCOc1ccc(CC2(C(=O)O)CCCC2)cc1` [Example C-02], the inhibition constant Ki at PPAR-α was 390 nM.
Consider `Cc1oc(-c2ccccc2)nc1CCOc1ccc(CC2(C(=O)O)CCCO2)cc1` (centres unmarked) [Example C-78], for which the Ki at PPAR-γ amounted to 6 nM; at PPAR-α, 15 nM.
Take `CC(C)(Oc1cccc(CNC(=O)OCc2cccc(Oc3ccccc3)c2)c1)C(=O)O` [Example B-10]: the values for the Ki on PPAR-γ and on PPAR-α were 170 nM and 190 nM, respectively.
Consider `COC(Cc1ccc(OCCc2nc(-c3ccc(C#N)cc3)oc2C)nc1)C(=O)O` [Example D-02], for which the Ki is 460 nM on PPAR-γ and 290 nM at PPAR-α.
In the case of `Cc1cccc(-c2nc(CCOc3ccc(CC4(C(=O)O)CCC4)cc3)c(C)o2)c1` [Example C-32], the Ki on PPAR-γ was determined as 35 nM; at PPAR-α it was 150 nM.
For `CCC(Oc1cccc(CNC(=O)OCc2ccc(OCc3ccccc3)cn2)c1)C(=O)O` (centres unmarked) [Example B-11], in that order: 7900 nM and 960 nM.
As to `Cc1oc(-c2ccc(Cl)c(Cl)c2)nc1CCOc1ccc(CC2(C(=O)O)CCC2)cc1` [Example C-25], the Ki at PPAR-γ worked out at 66 nM; at PPAR-α, 18 nM.
For `COC(Cc1ccc(OCCc2nc(-c3cccc(C)c3)oc2C)nc1)C(=O)O` [Example D-03], in that order: 11 nM and 300 nM.
For `Cc1sc(-c2ccccc2)nc1CCOc1ccc(CC2(C(=O)O)CCCO2)nc1` (centres unmarked) [Example C-51], in that order: 180 nM and 2900 nM.
For `Cc1oc(-c2ccc(C(F)(F)F)cc2)nc1CCOc1ccc(CC2(C(=O)O)CCCO2)cc1` (centres unmarked) [Example C-90], in that order: 17 nM and 110 nM.
`COC(Cc1ccc(OCCc2ccc(OS(C)(=O)=O)cc2)nc1)C(=O)O` [Example D-12]: on PPAR-γ, the inhibitory constant (Ki) was determined as 8100 nM.
`O=C(O)C1(Cc2ccc(OCCCc3nc(-c4ccccc4)oc3-c3ccccc3)cc2)CCC1` [Example C-38]: the Ki at PPAR-γ stood at 7200 nM.
For `CC(C)(Oc1cccc(CNS(=O)(=O)c2ccc(Oc3ccccc3)cc2)c1)C(=O)O` [Example B-20], the Ki on PPAR-α came to 1600 nM.
For the compound `CCC(Oc1cccc(CNC(=O)OCCc2nc(-c3ccccc3)oc2C)c1)C(=O)O` (centres unmarked) [Example B-13], at PPAR-α, the Ki stood at 9000 nM.
For `CC(C)(C)OC(=O)Nc1ccc(CCOc2ccc(CC3(C(=O)O)CCCO3)cn2)cc1` (centres unmarked) [Example C-73], at PPAR-γ, the Ki turned out to be 42 nM.
In the case of `Cc1oc(-c2ccccc2)nc1CCOc1ccc(CC2(C(=O)O)CCCO2)cn1` (centres unmarked) [Example C-48, 2-({6-[2-(5-methyl-2-phenyl-1,3-oxazol-4-yl)ethoxy]pyridin-3-yl}methyl)tetrahydrofuran-2-carboxylic acid], the inhibition constant Ki at PPAR-α was 240 nM.
Same read-out and setting: next, `Cc1oc(-c2ccccc2)nc1CCOc1ccc(C(O)C2(C(=O)O)CCC2)cn1` (centres unmarked) [Example C-44]: 36000 nM.
For `Cc1oc(-c2ccccc2)nc1CCOc1cccc(-c2cccc(OC3(C(=O)O)CCC3)c2)n1` [Example A-07], the Ki at PPAR-α is 120 nM.
Turning to `Cc1oc(-c2ccc(Cl)cc2)nc1CCOc1ccc(CC2(C(=O)O)CCCO2)cn1` (centres unmarked) [Example C-64], the inhibition constant (Ki) on PPAR-α was 14 nM.
Still for that read-out and setting: under `Cc1oc(-c2ccccc2)nc1CCOc1ccc(CC2(C(=O)O)CCOCC2)cc1` [Example C-05] stands 15000 nM.
With `CCOC(Cc1ccc(OCCc2nc(C)sc2C)cn1)C(=O)O` [Example D-25], the Ki on PPAR-γ worked out at 2900 nM.
`Cc1oc(-c2ccccc2)nc1CCOc1ccc(CC2(C(=O)O)CCCCO2)cn1` (centres unmarked) [Example C-56]: at PPAR-α, the inhibition constant (Ki) was 78 nM.
For the compound `COC(C)(Cc1ccc(OCCc2nc(-c3cc(C)nn3C)oc2C)nc1)C(=O)O` [Example D-39], the inhibition constant (Ki) at PPAR-γ worked out at 5000 nM.
Turning to `COC(C)(Cc1ccc(OCCc2ccc(OC(F)(F)F)cc2)nc1)C(=O)O` [Example D-41], the Ki on PPAR-α came out at 5900 nM.
For the compound `COC(C)(Cc1ccc(OCCc2nc(-c3ccccc3)oc2C)nc1)C(=O)O` [Example D-35], at PPAR-α, the Ki amounted to 330 nM.
For the compound `Cc1ccc(CCOc2ccc(CC3(C(=O)O)CCCO3)cn2)cc1` (centres unmarked) [Example C-71], the Ki at PPAR-α came to 9700 nM.
Regarding `COC(C)(Cc1ccc(OCCc2nc(C(C)C)oc2C)nc1)C(=O)O` [Example D-38], the inhibition constant Ki on PPAR-γ is 9600 nM.
For `CCC(Oc1cccc(CNC(=O)OCCc2cccc(C(F)(F)F)c2)c1)C(=O)O` (centres unmarked) [Example B-02], on PPAR-α, the inhibition constant (Ki) is 2200 nM.
The same measure, in the same setting: under `Cc1oc(-c2ccc(C(F)(F)F)cc2)nc1CCOc1ccc(CC2(C(=O)O)CCCO2)cn1` (centres unmarked) [Example C-63] stands 21 nM.
Consider `CC(C)(Oc1cccc(-c2cccc(OCc3ccc(C(F)(F)F)cc3)c2)c1)C(=O)O` [Example A-02, 2-Methyl-2-[(3′-{[4-(trifluoromethyl)benzyl]oxy}1,1′-biphenyl-3-yl)oxy]propanoic acid], for which the Ki at PPAR-α came to 550 nM.
Regarding `Cc1oc(-c2ccccc2)nc1CCCCc1ccc(CC2(C(=O)O)CCCO2)cn1` (centres unmarked) [Example C-75], on PPAR-γ, the Ki came out at 820 nM.
With `Cc1ccccc1CCOc1ccc(CC2(C(=O)O)CCCO2)cn1` (centres unmarked) [Example C-70], the inhibition constant (Ki) at PPAR-α stood at 6400 nM.
Same read-out and setting: next, `COc1ccc(-c2nc(CCOc3ccc(CC4(C(=O)O)CCCO4)cn3)c(C)o2)cc1` (centres unmarked) [Example C-60]: 65 nM.
The same measure, in the same setting: next, `CCC(Oc1cccc(CNC(=O)OCCCc2nc(-c3ccccc3)oc2C)c1)C(=O)O` (centres unmarked) [Example B-18]: 82 nM.
For `Cc1oc(-c2ccc(C(F)(F)F)c(F)c2)nc1CCOc1ccc(CC2(C(=O)O)CCCO2)cc1` (centres unmarked) [Example C-82], the Ki at PPAR-γ amounted to 16 nM.
In the case of `COC(C)(Cc1ccc(OCCCc2nc(-c3ccccc3)oc2C)nc1)C(=O)O` [Example D-27], the Ki on PPAR-γ turned out to be 7800 nM.
For the compound `CCOC(Cc1ccc(OCCCc2nc(-c3ccccc3)oc2C)cn1)C(=O)O` [Example D-24], the Ki at PPAR-α worked out at 930 nM.
Take `Cc1oc(-c2ccccc2)nc1CCCOc1ccc(CC2(C(=O)O)CCCO2)nc1` (centres unmarked) [Example C-55]: the inhibition constant Ki on PPAR-γ is 6000 nM.
As to `Cc1oc(-c2cccc(Cl)c2)nc1CCOc1ccc(CC2(C(=O)O)CCCO2)cn1` (centres unmarked) [Example C-59], the Ki on PPAR-α came out at 54 nM.
The same measure, in the same setting: next, `Cc1oc(-c2ccccc2)nc1CCOc1ccc(CC2(C(=O)O)CCCCC2)cn1` [Example C-47]: 8300 nM; `Cc1ccc(-c2nc(CCOc3ccc(CC4(C(=O)O)CCCO4)cn3)c(C)o2)cc1` (centres unmarked) [Example C-66]: 31 nM.
Same read-out and setting: next, `Cc1oc(-c2ccccc2)nc1CCCOc1ccc(CC2(C(=O)O)CCCC2)cc1` [Example C-03]: 2900 nM; `CCC(Oc1cccc(CNC(=O)OCc2ccc(-c3noc(C)n3)cc2)c1)C(=O)O` (centres unmarked) [Example B-27]: 220 nM.
As for `CCOC(Cc1ccc(OCCc2ccc(OCCOC)cc2)nc1)C(=O)O` [Example D-16], on PPAR-γ, the inhibitory constant (Ki) amounted to 6400 nM.
In the case of `CS(=O)(=O)Oc1ccc(CCOc2ccc(CC3(C(=O)O)CCCO3)cn2)cc1` (centres unmarked) [Example C-72], the Ki at PPAR-α turned out to be 7100 nM.
Still for that read-out and setting: under `CC(Cc1ccccc1)OC(=O)NCc1cccc(OC(C)(C)C(=O)O)c1` (centres unmarked) [Example B-28] stands 7800 nM.

The record behind these values is patent US20050234066A1, “Alpha substituted carboxylic acids” (Agouron Pharmaceuticals, Inc., priority 2004, published 2005).
